pEC50: −log10 of the molar value. Where “and” joins values, the source holds several entries; their conditions need not be identical. Equal values may be shown once.
Legend:
[1] = target: T1, 5-HT2B (Homo sapiens, UniProt P41595); conditions: human receptor, comparison data; cited from earlier work
[2] = target: T2, 5-HT receptor in human colon longitudinal muscle (Homo sapiens, UniProt P41595); assay: cell-based; assay type: cell-based
T2 construct: Longitudinal muscle strips (2mm wide by 20mm long) were then cut from the tissue between the taenia coli; from tissue; host or cells: human colon longitudinal muscle strips, electrically stimulated
T2 sequence (P41595 whole entry): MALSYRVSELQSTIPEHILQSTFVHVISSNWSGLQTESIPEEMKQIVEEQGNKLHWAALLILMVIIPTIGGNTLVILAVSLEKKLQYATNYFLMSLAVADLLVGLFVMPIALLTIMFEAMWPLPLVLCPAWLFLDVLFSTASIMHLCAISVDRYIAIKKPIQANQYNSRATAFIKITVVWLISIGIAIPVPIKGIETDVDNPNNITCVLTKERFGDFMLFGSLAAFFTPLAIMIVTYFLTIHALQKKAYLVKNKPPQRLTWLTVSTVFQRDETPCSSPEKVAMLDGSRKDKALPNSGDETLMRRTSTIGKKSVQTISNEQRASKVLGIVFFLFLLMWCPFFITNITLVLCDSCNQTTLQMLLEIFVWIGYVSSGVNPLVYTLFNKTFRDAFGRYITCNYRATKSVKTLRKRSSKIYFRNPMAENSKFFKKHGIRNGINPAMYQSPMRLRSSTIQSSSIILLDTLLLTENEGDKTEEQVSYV

[3] = target: T3, 5-HT4 (Homo sapiens, UniProt Q13639); conditions: human receptor, comparison data; cited from earlier work
T3 sequence (Q13639 whole entry): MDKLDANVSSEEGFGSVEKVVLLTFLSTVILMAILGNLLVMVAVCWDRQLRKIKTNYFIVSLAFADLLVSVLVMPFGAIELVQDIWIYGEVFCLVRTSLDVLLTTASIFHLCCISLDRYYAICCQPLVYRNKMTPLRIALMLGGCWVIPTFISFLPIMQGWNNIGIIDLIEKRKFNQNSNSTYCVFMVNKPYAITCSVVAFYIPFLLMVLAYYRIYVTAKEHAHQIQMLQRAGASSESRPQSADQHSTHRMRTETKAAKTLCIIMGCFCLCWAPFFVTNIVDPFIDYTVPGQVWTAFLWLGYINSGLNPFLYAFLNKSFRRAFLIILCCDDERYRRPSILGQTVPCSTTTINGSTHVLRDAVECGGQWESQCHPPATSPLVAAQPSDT

[4] = target: T3, 5-HT4; conditions: * responses to 5-HT in human isolated tissues; cited from earlier work
[5] = target: T4, 5-HT2C (Homo sapiens, UniProt P28335); conditions: * responses to 5-HT in human isolated tissues; cited from earlier work
T4 sequence (P28335 33-458): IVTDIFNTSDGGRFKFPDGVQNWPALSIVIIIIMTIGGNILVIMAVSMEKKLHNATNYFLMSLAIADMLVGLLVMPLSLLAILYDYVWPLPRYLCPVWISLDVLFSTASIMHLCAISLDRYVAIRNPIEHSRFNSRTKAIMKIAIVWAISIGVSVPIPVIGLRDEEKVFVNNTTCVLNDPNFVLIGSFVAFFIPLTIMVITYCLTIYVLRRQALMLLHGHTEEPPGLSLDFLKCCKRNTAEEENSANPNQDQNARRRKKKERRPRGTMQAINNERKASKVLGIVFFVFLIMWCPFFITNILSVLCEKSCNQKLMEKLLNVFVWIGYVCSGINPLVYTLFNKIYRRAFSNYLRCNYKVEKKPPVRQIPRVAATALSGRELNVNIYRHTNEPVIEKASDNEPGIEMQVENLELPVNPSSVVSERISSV

[6] = target: T1, 5-HT2B; conditions: * responses to 5-HT in human isolated tissues; cited from earlier work
[7] = system: 5-HT receptor in human colon longitudinal muscle; assay: cell-based; assay type: cell-based

T1 sequence (P41595 whole entry): as the sequence (P41595 whole entry) above

Structure (SMILES) | mean pEC50, 5-HT2B [1] | pEC50 [2] | mean pEC50, 5-HT4 [3] | mean pKB or pA2, 5-HT4 [4] | also measured
Cc1[nH]c2ccc(O)cc2c1CCN [2-Me-5-HT] | 6.7 | 7.00 | 6.0 | – | –
COc1ccc2[nH]cc(CCN)c2c1 [5-MeOT] | 7.6 | 6.80 | 6.2 | – | –
CC(N)Cc1c[nH]c2ccc(O)cc12 (stereo not drawn) [Alpha-Me-5-HT] | 8.4 | 8.50 | 6.2 | – | –
O=C(c1ccc(F)cc1)C1CCN(CCn2c(=O)[nH]c3ccccc3c2=O)CC1 [Ketanserin] | – | – | – | 4.7* | –
CSc1ccc2c(c1)C(N1CCN(C)CC1)Cc1ccccc1S2 (stereo not shown) [Methiothepin] | – | – | – | <6.0* | –
CC[C@@H](CO)NC(=O)[C@@H]1C=C2c3cccc4c3c(cn4C)C[C@H]2N(C)C1 [Methysergide] | – | – | – | <5.0* | mean pKB or pA2, 5-HT2C [5]: 8.9*
CC(C)c1cc(-c2ccc(F)c3ccccc23)nc(N)n1 [RS127445, 2-amino-4-(4-fluoronaphth-1-yl)-6-isopropylpyrimidine] | – | – | – | – | Kb [2]: 0.000316 µM and 0.000355 µM; Schild analysis, slope of plot ([2]; antagonism of 5-HT, RS127445 0.3nM to 100nM): 0.93±0.17
Cn1ccc2cc3c(cc21)CCN3C(=O)Nc1cccnc1 [SB 206553] | – | – | – | – | mean pKB or pA2, 5-HT2B [6]: 9.0*; Affinity (pKB) at the 5-HT receptor in human colon longitudinal muscle ([2]; antagonism of 5-HT in electrically-stimulated strips, at least 3 donors (RS127445: n>4 donors)): 8.5±0.1
Cc1cc2c(cc1Cl)N(C(=O)Nc1ccc(Oc3cccnc3C)nc1)CC2 [SB 242084] | – | – | – | – | Kb [2]: 0.501 µM
CN1[C@@H]2CC[C@H]1C[C@@H](OC(=O)C(CO)c1ccccc1)C2 (stereo partly shown) [atropine] | – | – | – | – | effect on electrically-induced contractile response [7]: inhibited
